Measured values as given in patent publication US9765037B2, “Compositions and methods for treating toxoplasmosis, cryptosporidiosis, and other apicomplexan protozoan related diseases” (University of Washington Through its Center for …, priority 2010, dated 2017).
Converted amounts (≈) assume the structure as drawn. Where two headings read alike, the source gives them in different places.

Assays:
[1] = system: human promyelocytic leukemia (HL-60); test: Growth inhibition of human cell line HL-60; details: for GI50: read-out: GI50 (μM) HL60
HckKD = HckKD (Homo sapiens (Human), UniProt P08631); test: Tyrosine kinase IC50, HckKD; type: biochemical; details: Table 9
AblKD = AblKD (Homo sapiens (Human), UniProt P00519); test: Tyrosine kinase IC50, AblKD; type: biochemical; details: Table 9
[2] = system: colorectal carcinoma (HC 2998); test: Growth inhibition of human cell line HC 2998; details: for GI50: read-out: GI50 (μM) HCC2998
[3] = system: human lymphocyte (CRL8155); test: Growth inhibition of human cell line CRL8155; details: for GI50: read-out: GI50 (μM) CRL8155
glioma derived (SF539) [4] = test: Growth inhibition of human cell line SF539; details: for GI50: read-out: GI50 (μM) SF539
[5] = system: P. berghei expressing GFP; test: P. berghei transmission from treated mice to A. stephensi
[6] = mouse, in vivo, ip, 50 mg/kg
[7] = Blood levels after oral gavage dosing of mice (LC-MS); details: for AUC / Cmax / Tmax: in vivo
CpCDPK1 = CpCDPK1 (Cryptosporidium parvum (strain Iowa II), UniProt A3FQ16); test: biochemical; type: biochemical
C. parvum = test: Immunosuppressed (SCID-beige) mouse C. parvum model; type: in vivo, Cryptosporidium parvum; details: SCID-beige mice; oral gavage once a day, days 3-7 and 10-14; 29 and 150 at 50 mg/kg/day, Paromomycin 2 g/kg/day
Method: Shown are mean of the parasite numbers detected in 25 mg of stool from each mouse, by qRT-PCR.

in vivo = details: mouse, ip
[8] = system: P. berghei expressing PfCDPK4-2x-myc; test: Exflagellation in blood of treated mice infected with P. berghei expressing PfCDPK4-2x-myc; type: in vivo, Plasmodium berghei
[9] = Solubility in buffers of various pH; type: physicochemical; details: buffer
SrcKD = SrcKD (Homo sapiens (Human), UniProt P12931); test: Tyrosine kinase IC50, SrcKD; type: biochemical
PfCDPK1 = PfCDPK1 (Plasmodium falciparum (isolate 3D7), UniProt P62344); test: biochemical
human fibroblast = test: Human fibroblast replication / cytotoxicity (Alamar blue); type: cell-based
PfCDPK4 = PfCDPK4 (Plasmodium falciparum (isolate 3D7), UniProt Q8IBS5); test: biochemical
glioma derived (SF539) [10] = details: human
Src3D = Src3D (Homo sapiens (Human), UniProt P12931); test: biochemical
Abl3D = Abl3D (Homo sapiens, UniProt P00519); test: Tyrosine kinase IC50, Abl3D; type: biochemical; details: Table 9
SRC = SRC (Homo sapiens (Human), UniProt P12931); details: read-out: IC50 (μM) Src
ABL = ABL (Homo sapiens (Human), UniProt P00519); type: biochemical
[11] = Table 8, read-out: IC50 (μM) CpCDPK1
[12] = pH 6.5, aqueous buffer, read-out: Experimental Solubility pH 6.5

## CCOc1ccc2cc(-c3nn(CC4CCNCC4)c4ncnc(N)c34)ccc2c1 [Compound 29, 3-(6-ethoxynaphthalen-2-yl)-1-(piperidin-4-ylmethyl)-1H-pyrazolo[3,4-d]pyrimidin-4-amine]
[1]
  Cell Toxicity HL60, % at 10 μM: <30% at 10 μM
HckKD
  IC50: > 10 µM
AblKD
  IC50: > 20 µM
[2]
  Cell Toxicity HCC2998, % at 10 μM: <30% at 10 μM
[3]
  Cell Toxicity CRL8155, % at 10 μM: <30% at 10 μM
Glioma derived (SF539) [4]
  Cell Toxicity SF539, % at 10 μM: <30% at 10 μM
[5]; mice treated i.p., Compound 29 at 10 mg/kg, mosquitoes fed 30 minutes after dosing
  formation of oocysts in A. stephensi fed on treated mice: completely blocked the formation of oocysts
[5]; mice, 10 mg/kg i.p.
  impact on asexual parasitaemia or gametocyte rates: no impact
[6]
  peak plasma concentration: 8.2 µM
  plasma levels for 20 hours post-treatment: exceeding 0.4 μM
[7]; mice, 40 mg/kg oral gavage 3x daily for 4 days, 1 hr after first dose, mean±SD, N=3
  Blood level, First Peak: 50 ± 80 nM
[7]; mice, 40 mg/kg oral gavage 3x daily for 4 days, 1 hr after third dose of d4, mean±SD, N=3
  Blood level, Fourth D4 Peak: 6600 ± 1600 nM
[7]; mice, 40 mg/kg oral gavage 3x daily for 4 days, 17 hours after dosing, beginning of d2, mean±SD, N=3
  Blood level, First Trough: 0 ± 0 nM
[7]; mouse, blood, po, 40 mg/kg
  concentration at 17 h: 0 nM
[7]; mouse, po
  AUC: 20 µM·h
  Cmax: 6640 nM
  Tmax: 120 min
[7]; mouse, po, 10 mg/kg
  AUC: 0.95 µM·h
  Cmax: 200 nM
  Tmax: 140 min
[7]; mouse, po, 50 mg/kg
  AUC: 5.18 µM·h
  Cmax: 1100 nM
  Tmax: 160 min
CpCDPK1; [11]
  IC50: 0.0035 µM
CpCDPK1; read-out: Enzymatic Assay IC50 CpCDPK1
  IC50: 0.001 µM
C. parvum
  parasite burden rebound after treatment: slowly
  parasites in stool (qRT-PCR) at the end of treatment: not detected
In vivo; 10 mg/kg
  AUC: 3.18 µM·h
  Cmax: 700 nM
  Tmax: 30 min
In vivo; 50 mg/kg
  AUC: 29.5 µM·h
  Cmax: 8200 nM
  Tmax: 30 min
  concentration at 20 h: 410 nM
[8]; 50 mg/kg i.p.
  exflagellation 20 hours after dosing: some exflagellation was observed
[8]; 50 mg/kg i.p., 30 minutes post-injection and up to 14 hours later
  exflagellation in blood samples from treated mice: completely suppressed exflagellation
[8]; mice, 10 mg/kg i.p.
  exflagellation in treated mice: sufficient to block exflagellation
[8]; mice, 50 mg/kg i.p.
  duration of complete suppression of exflagellation: 14 h
[9]; aqueous buffer, pH 2.0, read-out: Experimental Solubility pH 2.0
  solubility: 34 µM (≈ 13.7 µg/mL)
[9]; [12]
  solubility: 47 µM (≈ 18.9 µg/mL)
[9]; pH 7.4, aqueous buffer, read-out: Experimental Solubility pH 7.4
  solubility: 49 µM (≈ 19.7 µg/mL)
SrcKD; Table 9
  IC50: > 20 µM
PfCDPK1
  EC50: 353 nM

## Nc1ncnc2c1c(-c1ccc3cc(OCc4ccccc4)ccc3c1)nn2CC1CCNCC1 [Compound 34, 3-(6-(benzyloxy)naphthalen-2-yl)-1-(piperidin-4-ylmethyl)-1H-pyrazolo[3,4-d]pyrimidin-4-amine]
[1]
  Cell Toxicity HL60, % at 10 μM: <30% at 10 μM
HckKD
  IC50: 1.61 µM
[2]
  Cell Toxicity HCC2998, % at 10 μM: 30% at 10 μM
[3]
  Cell Toxicity CRL8155, % at 10 μM: <30% at 10 μM
Glioma derived (SF539) [4]
  Cell Toxicity SF539, % at 10 μM: 104%
Human fibroblast
  Observed HFF Toxicity (T at concentration): T at 100 μM
PfCDPK4
  EC50: 30.2 nM
[9]; [12]
  solubility: 23 µM (≈ 10.7 µg/mL)
PfCDPK1
  EC50: 27.2 nM
Glioma derived (SF539) [10]
  Cell Toxicity LD50 SF539: 6 µM

## CC(C)n1nc(-c2cc3c(Cl)cccc3[nH]2)c2c(N)ncnc21 [Compound 26, 3-(4-chloro-1H-indol-2-yl)-1-isopropyl-1H-pyrazolo[3,4-d]pyrimidin-4-amine]
[1]
  Cell Toxicity HL60, % at 10 μM: 45% toxicity at
[3]
  Cell Toxicity CRL8155, % at 10 μM: 38% toxicity at
CpCDPK1; [11]
  IC50: 0.0162 µM
PfCDPK4
  EC50: 544 nM
Src3D
  IC50: 1240 nM

## Nc1nc2ccc(C(=O)c3ccccc3)cc2[nH]1 [Compound 92]
Abl3D
  IC50: ~10 µM
SrcKD; Table 9
  IC50: > 10 µM

## Nc1ncnc2c1c(Cc1cccc3ccccc13)nn2CC1CCNCC1 [Compound 5h, 3-(naphthalen-1-ylmethyl)-1-(piperidin-4-ylmethyl)-1H-pyrazolo[3,4-d]pyrimidin-4-amine]
[1]
  Cell Toxicity HL60, % at 10 μM: <30% at 10 μM
[1]; human cell line HL60
  GI50: > 10 µM
SRC
  IC50: > 20 µM
HckKD
  IC50: > 10 µM
AblKD
  IC50: > 20 µM
[2]
  Cell Toxicity HCC2998, % at 10 μM: <30% at 10 μM
[2]; human cell line HCC2998
  GI50: > 10 µM
ABL
  IC50: > 20 µM
[3]
  Cell Toxicity CRL8155, % at 10 μM: <30% at 10 μM
[3]; human cell line CRL8155
  GI50: > 10 µM
Glioma derived (SF539) [4]
  Cell Toxicity SF539, % at 10 μM: <30% at 10 μM
Glioma derived (SF539) [4]; human cell line SF539
  GI50: > 10 µM
PfCDPK4
  EC50: 154 nM
SrcKD; Table 9
  IC50: > 20 µM

## COc1ccc2cc(-c3nn(C(C)C)c4ncnc(N)c34)ccc2c1 [Compound 7q, 1-isopropyl-3-(6-methoxynaphthalen-2-yl)-1H-pyrazolo[3,4-d]pyrimidin-4-amine]
[1]
  Cell Toxicity HL60, % at 10 μM: <30% at 10 μM
  GI50: > 10 µM
SRC
  IC50: 0.77 µM
HckKD
  IC50: 0.375 µM
[2]
  Cell Toxicity HCC2998, % at 10 μM: <30% at 10 μM
  GI50: > 10 µM
[3]
  Cell Toxicity CRL8155, % at 10 μM: <30% at 10 μM
  GI50: > 10 µM
Glioma derived (SF539) [4]
  Cell Toxicity SF539, % at 10 μM: <30% at 10 μM
  GI50: > 10 µM
[7]; mouse, po
  AUC: 35.3 µM·h
  Cmax: 19700 nM
  Tmax: 30 min
CpCDPK1; read-out: IC50 (μM) CpCDPK1
  IC50: 0.005 µM
In vivo
  AUC: 4.6 µM·h
  Cmax: 3800 nM
  Tmax: 30 min
PfCDPK4
  EC50: 41.4 nM
SrcKD
  IC50: 0.77 µM
PfCDPK1
  EC50: 208 nM
Src3D
  IC50: 576 nM
